The numbers were not newly measured in patent publication US7125861B2, “Water-soluble chitosan-indole-3-propionic acid conjugates” (priority 2003, dated 2006), which cites them from elsewhere.

The conditions of this data set: background statement on unconjugated indole-3-propionic acid.

As for `O=C(O)CCc1c[nH]c2ccccc12` [indole-3-propionic acid, 3-(3-Indolyl)propanoic acid], the solubility in water entry is given as “not water soluble”.
